Measurements as given in US20120088803A1, “CONTROL AGENT FOR SOFT ROT AND CONTROL METHOD FOR THE SAME” (Ishihara Sangyo Kaisha, Ltd, priority 2009, published 2012).
Several values for one entry are separate records, joined by “and”; a condition that tells them apart may be missing. Equal values may be shown once.

System: Chinese cabbage soft rot
Assay: Test for disease control of Chinese cabbage with or without mulch-sheet, field (Example 5)
Assay type: in vivo, Erwinia carotovora
Set-up: key to Disease incidence rate: % of examined plants that are diseased; key to Disease control value: (1 − severity treated / severity untreated) × 100; key to Disease severity: Σ(plants per class × index 0-4)/(plants examined × 4) × 100
Settings: 250 g ai/10 a; for Disease incidence rate / Disease severity / Disease control value: 150 L/10 a, Harebutai 65, 64 days; for Disease control value: vs untreated plot
Source text: (Disease incidence rate)=[(number of diseased plants)/(number of plants examined)]*100
(Disease severity)={S [(number of diseased plants in each class into which the plants are classified according to the degree of disease)*(disease index)]/[(number of plants examined)*4]}*100
(Disease control value)={1-[(Disease severity in treated plot)/(Disease severity in untreated plot)]}*100
Incidentally, the evaluation criteria for the disease index are as follows. • (Disease index) • 0: No lesion • 1: Lesions appear only in part of outer leaves (shipment can be made). • 2: Lesions appear in outer leaves and part of head leaves (the damaged part is removed and shipment as a small size plant can be made, rated Grade B). • 3: Lesions appear in most head leaves or more (shipment cannot be made). • 4: Lesions appear in the entire plant and the plant dies.
Preparation was performed using 500 g/L of 3-chloro-N-(3-chloro-5-trifluoromethyl-2-pyridyl)-alpha,alpha,alpha-trifluoro-2,6-dinit ro-p-toluidine (fluazinam, Frowncide SC (trade name), manufactured by Ishihara Sangyo Kaisha, Ltd.) such that the amount of the active ingredient was 250 g ai/10 a (500 mL product/10 a), and the amount of dilution water was 150 L/10 a.
(§1) A mulch-sheet for agricultural use was spreaded on soil, and planting holes for settlement (diameter: about 5 cm) were made, and then, the spray solution prepared in the above was sprayed onto the planting holes such that the spraying amount was 0.25 g/m^2 (150 L/10 a), followed by air-drying. Then, seedlings of Chinese cabbage (cultivar: Harebutai 65) grown for 4 weeks in a cell tray (128 holes/nursery box) were planted such that 19 seedlings were planted in one test plot having an area of 2.4 m^2 with two replications.
as §1, with “The” for “A mulch-sheet for agricultural use was spreaded on soil, and planting holes for settlement (diameter: about 5 cm) were made, and then, the”, “a) without spreading a mulch-sheet for agricultural use,” for “a),”
The degree of disease incidence was examined for all the plants in each test plot 64 days after the start of the test, and the disease severity and the disease control value were evaluated. Incidentally, the disease severity and the disease control value were obtained in the same manner as described above.

[1] = with mulch-sheet for agricultural use, Average
[2] = with mulch-sheet for agricultural use, single replications I-II
[3] = without mulch-sheet for agricultural use, Average

O=[N+]([O-])c1cc(C(F)(F)F)c(Cl)c([N+](=O)[O-])c1Nc1ncc(C(F)(F)F)cc1Cl [Fluazinam, 3-chloro-N-(3-chloro-5-trifluoromethyl-2-pyridyl)-alpha,alpha,alpha-trifluoro-2,6-dinit ro-p-toluidine]
Control effect without mulch-sheet compared with treated plot covered with mulch-sheet (in words) (Table 5 test, moderate incidence conditions): substantially equal | Disease incidence rate [1]: 31.2 | Disease severity [1]: 8.5 | Disease incidence rate [2]: 23.5 and 38.9 | Disease severity [2]: 5.9 and 11.1 | Disease control value (with mulch-sheet for agricultural use): 73.1 | Disease incidence rate [3]: 28.9 | Disease severity [3]: 8.6 | Disease control value (without mulch-sheet for agricultural use): 72.8
